Source: patent publication US10183919B2 (priority 2014, dated 2019)
Counter-ions that a name gives are not always drawn. Like-named read-outs stand apart in the source and are kept apart here.

Key:
Human MOR = molecular target: T1, Human MOR (Homo sapiens, UniProt P35372); test: cell-based
T1 construct: expressed in transfected cells; host or cells: HEK-293T
Text: (§1) Transfection. Human or mouse MOR cDNA was transfected alongside GαoB with RLuc8 inserted at position 91 (GαoB-RLuc8), Gβ1 (β1), and Gγ2 fused to the full-length mVenus at its N terminus (mVenus-γ2) into HEK-293T cells (5×10^6 cells/plate) in 10-cm dishes using PEI (Polysciences Inc.; Warrington, Pa.) in a 1:1 ratio diluted in Opti-MEM (Life Technologies Corp.; Grand Island, N.Y.) to assay for G protein activation as described previously (Rives, M.-L. et al. J. Biol. Chem. 2012, 287, 27050-4; Negri, A.; Rives, M.-L.; Caspers, M. J. et al. J. Chem. Inf. Model. 2013, 53, 521-526). Cells were maintained in the Dulbecco's Modified Eagle Medium (high glucose #11965; Life Technologies) supplemented with 10% FBS (Premium Select, Atlanta Biologicals; Atlanta, Ga.) and 100 U/mL penicillin and 100 μg/mL streptomycin (#15140, Life Technologies). After 24 hours the media was changed, and the experiment was performed 24 hours later (48 hours after transfection).
(§2) BRET. Transfected cells were dissociated and resuspended in phosphate-buffered saline (PBS). Approximately 200,000 cells/well were added to a black-framed, white well 96-well plate (#60050; Perkin Elmer; Waltham, Mass.). The microplate was centrifuged and the cells were resuspended in PBS. Then 5 μM of the luciferase substrate coelenterazine H was added to each well for 5 minutes. Following coelenterazine H addition, ligands were added and the BRET signal was measured at 5 minutes on a PHERAstar FS plate reader. Quantification of the BRET signal required calculating the ratio of the light emitted by the energy acceptor, mVenus (510-540 nm), over the light emitted by the energy donor, RLuc8 (485 nm). […] Dose response curves were fit using three-parameter logistics equation in GraphPad Prism 6.

Mouse MOR = molecular target: T2, Mouse MOR (Mus musculus, UniProt P42866); test: BRET G protein activation assay, HEK-293T cells transfected with mouse MOR; type: cell-based
T2 construct: expressed in transfected cells; host or cells: HEK-293T
T2 sequence (P42866 whole entry): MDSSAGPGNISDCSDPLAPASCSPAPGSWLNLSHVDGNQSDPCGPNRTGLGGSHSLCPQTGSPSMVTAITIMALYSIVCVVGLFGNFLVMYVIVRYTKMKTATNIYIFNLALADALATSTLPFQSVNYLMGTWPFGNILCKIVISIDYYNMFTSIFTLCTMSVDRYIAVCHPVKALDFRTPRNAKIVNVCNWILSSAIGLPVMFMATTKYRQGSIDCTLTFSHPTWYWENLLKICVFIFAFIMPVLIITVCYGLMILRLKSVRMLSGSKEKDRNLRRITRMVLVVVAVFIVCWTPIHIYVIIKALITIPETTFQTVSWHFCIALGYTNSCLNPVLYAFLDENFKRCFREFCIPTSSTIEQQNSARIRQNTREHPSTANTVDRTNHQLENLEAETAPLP
Text: as §1, §2

[1] = Pharmacokinetics and brain distribution after a single intraperitoneal dose; details: i.p. 10 mg/kg, male C57BL/6 mice
Procedure: For each compound, a group of twenty four male mice were administered with a solution formulation of the drug in normal saline intraperitoneally at a dose of 10 mg/kg. Blood samples (approximately 60 μL) were collected under light isoflurane anesthesia from the retro orbital plexus at 0.08, 0.25, 0.5, 1, 2, 4, 8 and 24 hr. Plasma samples were separated by centrifugation of whole blood and stored below −70° C. until bioanalysis. Immediately after collection of blood, brain samples were collected from each mouse at 0.08, 0.25, 0.5, 1, 2, 4, 8 and 24 hr. Brain samples were homogenized using ice-cold phosphate buffer saline (pH 7.4) and homogenates were stored below −70° C. until analysis. Total homogenate volume was three times the tissue weight. All samples were processed for analysis by protein precipitation using acetonitrile (ACN) and analyzed with fit-for-purpose LC/MS/MS method (LLOQ-1.01 ng/mL in plasma and brain). Pharmacokinetic parameters were calculated using the non-compartmental analysis tool of Phoenix WinNonlin® (Version 6.3).

[2] = BRET G protein activation, HEK-293T, mean ± SEM of independent trials, read-out: EC50 Mouse MOR

T1 sequence (P35372 whole entry): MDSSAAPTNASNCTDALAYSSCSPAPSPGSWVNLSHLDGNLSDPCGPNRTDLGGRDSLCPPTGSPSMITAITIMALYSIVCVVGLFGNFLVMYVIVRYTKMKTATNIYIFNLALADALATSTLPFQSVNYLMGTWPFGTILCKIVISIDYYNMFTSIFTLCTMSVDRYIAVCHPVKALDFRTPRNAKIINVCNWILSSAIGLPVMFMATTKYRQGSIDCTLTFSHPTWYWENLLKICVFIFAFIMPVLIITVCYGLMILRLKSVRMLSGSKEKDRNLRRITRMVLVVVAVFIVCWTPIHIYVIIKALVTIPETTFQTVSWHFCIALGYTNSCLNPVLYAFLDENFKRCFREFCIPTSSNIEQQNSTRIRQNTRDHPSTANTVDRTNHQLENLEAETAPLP

CCOC(=O)CCCCCCNC1c2ccccc2N(C)S(=O)(=O)c2ccccc21 (stereo not shown) [compound 9, Ethyl 7-((6-methyl-5,5-dioxido-6,11-dihydrodibenzo[c,f][1,2]thiazepin-11-yl)amino)heptanoate]
EC50 (Human MOR): < 10 µM | EC50 (Mouse MOR): < 10 µM

CN1c2ccccc2C(NCCCCCCC(=O)O)c2ccccc2S1(=O)=O (stereo not shown) [compound 80, 7-((6-Methyl-5,5-dioxido-6,11-dihydrodibenzo[c,f][1,2]thiazepin-11-yl)amino)heptanoic acid hydrochloride salt]
EC50 (Human MOR): < 10 µM | EC50 (Mouse MOR): < 10 µM

CCOC(=O)CCCCNC1c2ccccc2N(C)S(=O)(=O)c2cc(Cl)ccc21 (stereo not shown) [compound 17, Ethyl 5-((3-chloro-6-methyl-5,5-dioxido-6,11-dihydrodibenzo[c,f][1,2]thiazepin-11-yl)amino)pentanoate]
EC50 (Human MOR): < 10 µM | EC50 (Mouse MOR): < 10 µM

CN1c2ccccc2C(NCCCCCCC(=O)O)c2ccc(Cl)cc2S1(=O)=O (stereo not shown) [tianeptine, reference compound]
EC50 (Human MOR): 0.194 ± 0.07 µM | EC50 (Mouse MOR): 0.641 ± 0.12 µM

CC(C)NC1c2ccccc2N(C)S(=O)(=O)c2cc(Cl)ccc21 (stereo not shown) [compound 22, 3-Chloro-11-(isopropylamino)-6-methyl-6,11-dihydrodibenzo [c,f][1,2]thiazepine 5,5-dioxide]
EC50 (Human MOR): < 10 µM | EC50 (Mouse MOR; [2]): < 10 µM

COCCCNC1c2ccccc2N(C)S(=O)(=O)c2cc(Cl)ccc21 (stereo not shown) [compound 23, 3-Chloro-11-((3-methoxypropyl)amino)-6-methyl-6,11-dihydrodibenzo [c,f][1,2]thiazepine 5,5-dioxide]
AUClast ([1]; brain): 335.03 ng·h/g | CL ([1]; brain): 260.44 mL/min/kg | MRTlast ([1]; brain): 1.27 h | T1/2 ([1]; brain): 5.12 h | Tmax ([1]; brain): 0.08 h | half-life compared with tianeptine ([1]; Tables 3 and 4): much longer half-life | systemic exposure (AUC) compared with tianeptine ([1]; Tables 3 and 4): higher systemic exposure (AUC) | AUClast ([1]; plasma): 3058.80 ng·h/mL | CL ([1]; plasma): 44.27 mL/min/kg | Cmax ([1]; plasma): 1535.74 ng/mL | MRTlast ([1]; plasma): 2.29 h | T1/2 ([1]; plasma): 3.93 h | Tmax ([1]; plasma): 0.25 h | EC50 (Human MOR): 0.264 ± 0.0853 µM | EC50 (Mouse MOR; [2]): 1.2 ± 0.03 µM

CCOC(=O)CCCCCCNC1c2ccccc2N(C)S(=O)(=O)c2cc(SC)ccc21 (stereo not shown) [compound 45, Ethyl 7-((6-methyl-3-(methylthio)-5,5-dioxido-6,11-dihydrodibenzeo[c,f] [1,2] 1, 2lazepin-11-yl)amino) heptanotate]
EC50 (Human MOR): < 10 µM | EC50 (Mouse MOR; [2]): < 10 µM

CCCCCNC1c2ccccc2N(C)S(=O)(=O)c2cc(Cl)ccc21 (stereo not shown) [compound 19, 3-Chloro-6-methyl-11-(pentylamino)-6,11-dihydrodibenzo [c,f][1,2]thiazepine 5,5-dioxide]
EC50 (Human MOR): < 10 µM | EC50 (Mouse MOR; [2]): < 10 µM

CCCCCNC1c2ccccc2N(C)S(=O)(=O)c2ccccc21 (stereo not shown) [compound 8, 6-Methyl-11(pentylamino)-6,11-dihydrodibenzo[c,f][1,2]thiazepine 5,5-dioxide]
EC50 (Human MOR): < 10 µM | EC50 (Mouse MOR; [2]): < 10 µM

CCCNC1c2ccccc2N(C)S(=O)(=O)c2cc(Cl)ccc21 (stereo not shown) [compound 21, 3-Chloro-6-methyl-11-(propylamino)-6,11-dihydrodibenzo [c,f][1,2]thiazepine 5,5-dioxide]
EC50 (Human MOR): < 10 µM | EC50 (Mouse MOR; [2]): < 10 µM

CNC1c2ccccc2N(C)S(=O)(=O)c2cc(Cl)ccc21 (stereo not shown) [compound 20, 3-Chloro-6-methyl-11-(methylamino)-6,11-dihydrodibenzo [c,f][1,2]thiazepine 5,5-dioxide]
EC50 (Human MOR): < 10 µM | EC50 (Mouse MOR; [2]): < 10 µM

COCCCNC1c2ccccc2N(C)S(=O)(=O)c2cc(SC)ccc21 (stereo not shown) [compound 44, 11-((3-Methoxypropyl)amino)-6-methyl-3-(methylthio)-6, 11-dihydrodibenzo[c,f][1,2]thiazepine 5,5-dioxide]
EC50 (Human MOR): < 10 µM | EC50 (Mouse MOR; [2]): < 10 µM
